Assay results taken from ChEMBL document CHEMBL5550201, “Discovery of a Highly Potent, Selective and Efficacious USP7 Degrader for the Treatment of Acute Lymphoblastic Leukemia” (J Med Chem, 2024).
Active and inactive are the calls of the source. No cut-off for these calls is given here.

What was measured:
[1] = biological target: T1, von Hippel-Lindau disease tumor suppressor/Ubiquitin carboxyl-terminal hydrolase 7 (Homo sapiens, UniProt Q93009+P40337); assay: PROTACT activity at USP7/VHL in human RS4;11 cells assessed as protein degradation at 10 nM measured after 24 hrs by Western blot analysis relative to control; format: cell-based
[2] = biological target: T1, von Hippel-Lindau disease tumor suppressor/Ubiquitin carboxyl-terminal hydrolase 7; assay: PROTACT activity at USP7/VHL in human RS4;11 cells assessed as protein degradation at 100 nM measured after 24 hrs by Western blot analysis relative to control; format: cell-based
[3] = biological target: von Hippel-Lindau disease tumor suppressor/USP7; assay: PROTACT activity at USP7 (unknown origin) /E3 ligase (unknown origin) assessed as protein degradation
[4] = biological target: Protein cereblon/Ubiquitin carboxyl-terminal hydrolase 7 (Homo sapiens, UniProt Q93009+Q96SW2); assay: PROTACT activity at USP7/CRBN in human CAL-33 cells assessed as protein degradation measured after 72 hrs by immune blot analysis; format: cell-based
MDA-MB-468 = assay: Antiproliferative activity against human MDA-MB-468 cells assessed as cell viability measured after 6 days by Celltiter glo2.0 cell viability assay; format: functional, cell-based; details: MDA-MB-468, 144 h
BT-549 = assay: Antiproliferative activity against human BT-549 cells assessed as cell viability measured after 6 days by Celltiter glo2.0 cell viability assay; format: functional, cell-based; details: BT-549, 144 h
[5] = biological target: T1, von Hippel-Lindau disease tumor suppressor/Ubiquitin carboxyl-terminal hydrolase 7; assay: PROTACT activity at USP7/VHL in human RS4;11 cells assessed as protein degradation at 10 to 100 nM measured after 12 hrs by Western blot analysis; format: cell-based; details: dose 10-100 nM
[6] = biological target: T1, von Hippel-Lindau disease tumor suppressor/Ubiquitin carboxyl-terminal hydrolase 7; assay: PROTACT activity at USP7/VHL in human REH cells assessed as protein degradation at 10 to 100 nM measured after 12 hrs by Western blot analysis; format: cell-based; details: dose 10-100 nM
[7] = biological target: T1, von Hippel-Lindau disease tumor suppressor/Ubiquitin carboxyl-terminal hydrolase 7; assay: PROTACT activity at USP7/VHL in human OCI-Ly10 cells assessed as protein degradation at 10 to 100 nM measured after 12 hrs by Western blot analysis; format: cell-based; details: dose 10-100 nM
RS4-11 [8] = assay: Antiproliferative activity against human RS4-11 cells with wild type p53 assessed as cell viability measured after 3 days by PMS-MTS assay; format: functional, cell-based; details: RS4-11, 72 h
RS4-11 [9] = assay: Antiproliferative activity against human RS4-11 cells with shp53 assessed as cell viability measured after 7 days by PMS-MTS assay; format: functional, cell-based; details: RS4-11, 168 h
REH = assay: Antiproliferative activity against human REH cells with wild type p53 assessed as cell viability measured after 3 days by PMS-MTS assay; format: functional, cell-based; details: 72 h

T1 sequence (P40337 whole entry, looked up): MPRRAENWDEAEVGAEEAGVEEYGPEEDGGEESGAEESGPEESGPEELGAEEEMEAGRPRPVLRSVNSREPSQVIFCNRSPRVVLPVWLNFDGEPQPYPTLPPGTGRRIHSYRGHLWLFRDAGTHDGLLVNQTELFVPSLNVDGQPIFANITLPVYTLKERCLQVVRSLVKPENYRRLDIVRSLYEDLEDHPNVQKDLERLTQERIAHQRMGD
T1 sequence (Q93009 whole entry, looked up): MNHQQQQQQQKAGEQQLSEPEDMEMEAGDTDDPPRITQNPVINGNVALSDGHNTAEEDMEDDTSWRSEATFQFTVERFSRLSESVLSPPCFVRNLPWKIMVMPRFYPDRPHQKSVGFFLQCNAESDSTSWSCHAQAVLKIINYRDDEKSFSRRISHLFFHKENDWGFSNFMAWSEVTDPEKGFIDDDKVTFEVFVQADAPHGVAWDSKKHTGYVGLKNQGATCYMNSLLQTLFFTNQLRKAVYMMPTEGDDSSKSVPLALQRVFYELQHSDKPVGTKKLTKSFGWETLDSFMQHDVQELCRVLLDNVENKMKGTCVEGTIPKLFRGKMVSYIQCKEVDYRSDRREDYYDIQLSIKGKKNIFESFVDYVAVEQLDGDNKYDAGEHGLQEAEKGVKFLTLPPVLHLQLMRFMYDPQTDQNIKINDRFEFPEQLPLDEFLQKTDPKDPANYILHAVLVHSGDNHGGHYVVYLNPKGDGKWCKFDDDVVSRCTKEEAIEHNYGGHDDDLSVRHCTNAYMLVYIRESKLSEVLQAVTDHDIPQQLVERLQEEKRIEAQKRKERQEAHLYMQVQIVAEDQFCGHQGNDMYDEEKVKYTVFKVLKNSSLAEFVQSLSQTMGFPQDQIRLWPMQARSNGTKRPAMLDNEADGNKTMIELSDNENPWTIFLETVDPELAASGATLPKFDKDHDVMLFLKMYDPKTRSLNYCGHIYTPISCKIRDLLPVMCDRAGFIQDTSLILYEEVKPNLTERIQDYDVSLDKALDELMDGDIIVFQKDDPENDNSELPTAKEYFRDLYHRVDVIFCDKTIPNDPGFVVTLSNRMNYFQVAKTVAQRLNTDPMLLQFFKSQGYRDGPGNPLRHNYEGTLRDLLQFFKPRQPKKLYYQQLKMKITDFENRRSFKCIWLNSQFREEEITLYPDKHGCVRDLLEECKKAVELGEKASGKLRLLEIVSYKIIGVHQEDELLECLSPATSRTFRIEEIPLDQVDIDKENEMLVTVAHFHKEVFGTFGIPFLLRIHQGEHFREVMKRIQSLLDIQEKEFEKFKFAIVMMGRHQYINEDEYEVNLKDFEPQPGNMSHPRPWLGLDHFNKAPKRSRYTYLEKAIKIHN
Protein cereblon/Ubiquitin carboxyl-terminal hydrolase 7, sequence (Q93009 whole entry): as the sequence (Q93009 whole entry, looked up) above
Protein cereblon/Ubiquitin carboxyl-terminal hydrolase 7, sequence (Q96SW2 whole entry): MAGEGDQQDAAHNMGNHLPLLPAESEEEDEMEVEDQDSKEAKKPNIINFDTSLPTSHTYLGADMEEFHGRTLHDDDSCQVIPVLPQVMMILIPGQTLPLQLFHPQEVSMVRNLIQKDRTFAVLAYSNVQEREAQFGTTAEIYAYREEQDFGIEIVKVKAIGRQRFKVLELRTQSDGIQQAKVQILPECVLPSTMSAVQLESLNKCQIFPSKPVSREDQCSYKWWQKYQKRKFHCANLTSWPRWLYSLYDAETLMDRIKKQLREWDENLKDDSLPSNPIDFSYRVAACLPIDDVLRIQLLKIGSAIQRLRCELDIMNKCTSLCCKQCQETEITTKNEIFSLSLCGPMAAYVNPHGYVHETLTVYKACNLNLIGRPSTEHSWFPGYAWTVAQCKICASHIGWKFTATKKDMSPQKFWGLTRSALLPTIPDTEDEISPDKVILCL

| SMILES | Activity [1] [%] | Activity [2] [%] | further results |
| --- | --- | --- | --- |
| Cc1ncsc1-c1ccc([C@H](C)NC(=O)[C@@H]2C[C@@H](O)CN2C(=O)[C@@H](NC(=O)CCCCCCCCCNCc2ccc(-c3c4ncn(CC5(O)CCN(C(=O)C[C@@H](C)c6ccccc6)CC5)c(=O)c4nn3C)cc2)C(C)(C)C)cc1 | 29.2 | 55.1 |  |
| Cc1ncsc1-c1ccc([C@H](C)NC(=O)[C@@H]2C[C@@H](O)CN2C(=O)[C@@H](NC(=O)CCOCCOCCOCCOCCNCc2ccc(-c3c4ncn(CC5(O)CCN(C(=O)C[C@@H](C)c6ccccc6)CC5)c(=O)c4nn3C)cc2)C(C)(C)C)cc1 | 13 | 44.4 |  |
| Cc1ncsc1-c1ccc([C@H](C)NC(=O)[C@@H]2C[C@@H](O)CN2C(=O)[C@@H](c2cc(N3CCC(N4CC(CNCc5ccc(-c6c7ncn(CC8(O)CCN(C(=O)C[C@@H](C)c9ccccc9)CC8)c(=O)c7nn6C)cc5)C4)CC3)no2)C(C)C)cc1 | 15.5 | 25.6 |  |
| Cc1ncsc1-c1ccc([C@H](C)NC(=O)[C@@H]2C[C@@H](O)CN2C(=O)[C@@H](c2cc(N3CCC(CNCc4ccc(-c5c6ncn(CC7(O)CCN(C(=O)C[C@@H](C)c8ccccc8)CC7)c(=O)c6nn5C)cc4)CC3)no2)C(C)C)cc1 | 69.5 | 91.3 |  |
| Cc1ncsc1-c1ccc([C@H](C)NC(=O)[C@@H]2C[C@@H](O)CN2C(=O)[C@@H](c2cc(N3CCC(CN4CCC(CNCc5ccc(-c6c7ncn(CC8(O)CCN(C(=O)C[C@@H](C)c9ccccc9)CC8)c(=O)c7nn6C)cc5)CC4)CC3)no2)C(C)C)cc1 | 50.8 | 73.5 |  |
| Cc1ncsc1-c1ccc([C@H](C)NC(=O)[C@@H]2C[C@@H](O)CN2C(=O)[C@@H](NC(=O)CCCCCCCCCCCNCc2ccc(-c3c4ncn(CC5(O)CCN(C(=O)C[C@@H](C)c6ccccc6)CC5)c(=O)c4nn3C)cc2)C(C)(C)C)cc1 | 31.9 | 75.5 |  |
| C[C@H](CC(=O)N1CCC(O)(Cn2cnc3c(-c4ccc(CNCCCCCCCCCCCNc5cccc6c5C(=O)N(C5CCC(=O)NC5=O)C6=O)cc4)n(C)nc3c2=O)CC1)c1ccccc1 (some centres not stated) |  |  | DC50 [3]: ~33 nM |
| Cc1ncsc1-c1ccc([C@H](C)NC(=O)[C@@H]2C[C@@H](O)CN2C(=O)[C@@H](c2cc(N3CCC(CN4CCC(NCc5ccc(-c6c7ncn(CC8(O)CCN(C(=O)C[C@@H](C)c9ccccc9)CC8)c(=O)c7nn6C)cc5)CC4)CC3)no2)C(C)C)cc1 | 22.2 | 37.7 |  |
| Cc1ncsc1-c1ccc([C@H](C)NC(=O)[C@@H]2C[C@@H](O)CN2C(=O)[C@@H](NC(=O)CCOCCOCCOCCNCc2ccc(-c3c4ncn(CC5(O)CCN(C(=O)C[C@@H](C)c6ccccc6)CC5)c(=O)c4nn3C)cc2)C(C)(C)C)cc1 | 26.1 | 33.6 |  |
| Cc1ncsc1-c1ccc([C@H](C)NC(=O)[C@@H]2C[C@@H](O)CN2C(=O)[C@@H](NC(=O)CCOCCOCCNCc2ccc(-c3c4ncn(CC5(O)CCN(C(=O)C[C@@H](C)c6ccccc6)CC5)c(=O)c4nn3C)cc2)C(C)(C)C)cc1 | 12.8 | 26.8 |  |
| O=C1CCC(N2Cc3c(CCCCCN4CCN(CCC(=O)Nc5ccc6c(=O)n(CC7(O)CCN(C(=O)C(CCCNC(=O)c8ccc9c(Cl)c%10c(nc9c8)CCCC%10)Cc8ccccc8)CC7)cnc6c5)CC4)cccc3C2=O)C(=O)N1 (configuration not stated) |  |  | DC50 [4]: 4.3 nM; IC50 (MDA-MB-468): 1800 nM; IC50 (BT-549): 2800 nM |
| Cc1ncsc1-c1ccc([C@H](C)NC(=O)[C@@H]2C[C@@H](O)CN2C(=O)[C@@H](c2cc(N3CCC(CN4CC(NCc5ccc(-c6c7ncn(CC8(O)CCN(C(=O)C[C@@H](C)c9ccccc9)CC8)c(=O)c7nn6C)cc5)C4)CC3)no2)C(C)C)cc1 | 0.4 | 60.2 |  |
| Cc1ncsc1-c1ccc([C@H](C)NC(=O)[C@@H]2C[C@@H](O)CN2C(=O)[C@@H](c2cc(N3CCC(CN4CC(CNCc5ccc(-c6c7ncn(CC8(O)CCN(C(=O)C[C@@H](C)c9ccccc9)CC8)c(=O)c7nn6C)cc5)C4)CC3)no2)C(C)C)cc1 | 35 | 55.1 |  |
| Cc1ncsc1-c1ccc([C@H](C)NC(=O)[C@@H]2C[C@@H](O)CN2C(=O)[C@@H](NC(=O)CCCCCNCc2ccc(-c3c4ncn(CC5(O)CCN(C(=O)C[C@@H](C)c6ccccc6)CC5)c(=O)c4nn3C)cc2)C(C)(C)C)cc1 | 38 | 56.5 |  |
| Cc1ncsc1-c1ccc([C@H](C)NC(=O)[C@@H]2C[C@H](O)CN2C(=O)[C@@H](c2cc(N3CCN(Cc4ccc(-c5c6ncn(CC7(O)CCN(C(=O)C[C@@H](C)c8ccccc8)CC7)c(=O)c6nn5C)cc4)CC3)no2)C(C)C)cc1 |  |  | Activity [5]: inactive; Activity [6]: inactive; Activity [7]: inactive; IC50 (RS4-11 [8]): 873 nM; IC50 (RS4-11 [9]): > 20000 nM; IC50 (REH): 7390 nM |
| Cc1ncsc1-c1ccc([C@H](C)NC(=O)[C@@H]2C[C@@H](O)CN2C(=O)[C@@H](c2cc(N3CCC(N4CCC(NCc5ccc(-c6c7ncn(CC8(O)CCN(C(=O)C[C@@H](C)c9ccccc9)CC8)c(=O)c7nn6C)cc5)CC4)CC3)no2)C(C)C)cc1 | 25.6 | 37.3 |  |
| C[C@H](CC(=O)N1CCC(O)(Cn2cnc3c(-c4ccc(CN)cc4)n(C)nc3c2=O)CC1)c1ccccc1 |  |  | IC50 (RS4-11 [8]): 69 nM; IC50 (RS4-11 [9]): > 20000 nM; IC50 (REH): 20.3 nM |
| Cc1ncsc1-c1ccc([C@H](C)NC(=O)[C@@H]2C[C@@H](O)CN2C(=O)[C@@H](NC(=O)CCCCCCCCNCc2ccc(-c3c4ncn(CC5(O)CCN(C(=O)C[C@@H](C)c6ccccc6)CC5)c(=O)c4nn3C)cc2)C(C)(C)C)cc1 | 26.1 | 39.1 |  |
| Cc1ncsc1-c1ccc([C@H](C)NC(=O)[C@@H]2C[C@@H](O)CN2C(=O)[C@@H](NC(=O)CCCCCCCCCCNCc2ccc(-c3c4ncn(CC5(O)CCN(C(=O)C[C@@H](C)c6ccccc6)CC5)c(=O)c4nn3C)cc2)C(C)(C)C)cc1 | 30.1 | 66.7 |  |
| Cc1ncsc1-c1ccc([C@H](C)NC(=O)[C@@H]2C[C@@H](O)CN2C(=O)[C@@H](NC(=O)CCCCCCCNCc2ccc(-c3c4ncn(CC5(O)CCN(C(=O)C[C@@H](C)c6ccccc6)CC5)c(=O)c4nn3C)cc2)C(C)(C)C)cc1 | 46.9 | 58.1 |  |
| Cc1ncsc1-c1ccc([C@H](C)NC(=O)[C@@H]2C[C@@H](O)CN2C(=O)[C@@H](c2cc(N3CCC(N4CC(NCc5ccc(-c6c7ncn(CC8(O)CCN(C(=O)C[C@@H](C)c9ccccc9)CC8)c(=O)c7nn6C)cc5)C4)CC3)no2)C(C)C)cc1 | 16 | 16.9 |  |
